We go through seven compounds from the NIST ThermoML archive (doi:10.1021/je2013878).

± gives the expanded uncertainty stated by the source.

A short description of the series: activity coefficient (dimensionless); of the first substance listed, at infinite dilution; xn = mol fraction of the nth substance listed. Particulars: 313.15 K; 101 kPa; Liquid; Chromatography; x1 = 0.
Take `C=CC(O)CCCCC` (configuration not stated) [1-octen-3-ol] + O: the activity coefficient was determined as 2160 ± 230. The value for `C=CC(O)CC` (configuration not stated) [1-penten-3-ol] + O was 49 ± 5; that for `CCC(=O)C(C)=O` [2,3-pentanedione] + O was 160 ± 17. The value for `CC(C)CC=O` [3-methylbutanal] + O was 179 ± 19. In the case of `O=Cc1ccccc1` [benzaldehyde] + O it was 570 ± 60. Turning to `CCOC(C)=O` [ethyl acetate] + O, the activity coefficient amounted to 71 ± 7. The value for `CCCCCC=O` [hexanal] + O was 601 ± 63.
